Data from US20230135729A1, “COMPOUND WITH ANTI-SPORE ACTIVITY AND PHARMACEUTICAL COMPOSITION THEREOF” (priority 2020, published 2023).
In brackets after ≈: the same amount, converted by molar mass. Where two headings read alike, the source gives them in different places.

Tests used:
Type in all cases: cell-based
[1] = test system: spores of ATCC 43255 strain; experiment: Inhibition of germination of C. difficile spores (MIC), strain ATCC 43255; conditions: Clostridioides difficile, ATCC43255, 1 h, read-out: MIC (minimum concentration that completely inhibits spore germination)
How it was run: (§1)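 Germination was followed as the drop in OD580 over 60 min at 37° C in BHIS after adding sodium taurocholate to spores premixed with compound. Spores were first heat-activated (65° C, 30 min) and washed free of self-germinating spores. The inhibition rate was calculated against germinant and non-germinant controls.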

[2] = test system: spores of ATCC BBA1870 strain; experiment: Inhibition of germination of C. difficile spores (MIC), strain ATCC BBA1870; conditions: Clostridioides difficile, ATCCBBA1870STRAIN, 1 h, read-out: MIC (minimum concentration that completely inhibits spore germination)
How it was run: as §1

[3] = test system: spores of ATCC 630 strain; experiment: Inhibition of germination of C. difficile spores (MIC), strain ATCC 630; conditions: Clostridioides difficile, ATCC630, 1 h, read-out: MIC (minimum concentration that completely inhibits spore germination)
How it was run: as §1

[4] = strain 43255, sodium taurocholate as germinant, BHIS medium, 37° C., OD580 for 60 min
[5] = strain 1870, sodium taurocholate as germinant, BHIS medium, 37° C., OD580 for 60 min
[6] = strain 630, sodium taurocholate as germinant, BHIS medium, 37° C., OD580 for 60 min

Compound | MIC [1, 4] [µM] | MIC [2, 5] [µM] | MIC [3, 6] [µM] | MIC [1] [µM] | MIC [2] [µM] | MIC [3] [µM]
C[C@H](CC(=O)NCC1CC1)[C@H]1CC[C@H]2[C@@H]3[C@@H](O)C[C@@H]4C[C@H](O)CC[C@]4(C)[C@H]3CC[C@]12C [Compound I-10] | 32 (≈ 13.8 µg/mL) | 32 (≈ 13.8 µg/mL) | 32 (≈ 13.8 µg/mL) | – | – | –
CC(C)[C@@H](NC(=O)C[C@@H](C)[C@H]1CC[C@H]2[C@@H]3C(=O)C[C@@H]4CC(=O)CC[C@]4(C)[C@H]3CC[C@]12C)c1cccs1 [Compound I-66] | 0.25 (≈ 0.128 µg/mL) | 0.25 (≈ 0.128 µg/mL) | 0.25 (≈ 0.128 µg/mL) | – | – | –
CC(C)[C@@H](NC(=O)C[C@@H](C)[C@H]1CC[C@H]2[C@@H]3C(=O)C[C@@H]4CC(=O)CC[C@]4(C)[C@H]3CC[C@]12C)c1ccc(N(C)C)s1 [Compound I-204] | – | – | – | 32 (≈ 17.8 µg/mL) | 32 (≈ 17.8 µg/mL) | 32 (≈ 17.8 µg/mL)
CC[C@@H](NC(=O)C[C@@H](C)[C@H]1CC[C@H]2[C@@H]3[C@H](O)[C@H](O)[C@@H]4C[C@H](O)CC[C@]4(C)[C@H]3CC[C@]12C)c1ccc(Cl)s1 [Compound I-117] | 8 (≈ 4.42 µg/mL) | 8 (≈ 4.42 µg/mL) | 4 (≈ 2.21 µg/mL) | – | – | –
C[C@H](CC(=O)NC(Cc1ccccc1)c1ccccc1)[C@H]1CC[C@H]2[C@@H]3C(=O)C[C@@H]4CC(=O)CC[C@]4(C)[C@H]3CC[C@]12C (stereo partly drawn) [Compound I-62] | – | – | – | 128 (≈ 70.9 µg/mL) | 256 (≈ 142 µg/mL) | 128 (≈ 70.9 µg/mL)
CCC(NC(=O)C[C@@H](C)[C@H]1CC[C@H]2[C@@H]3C(=O)C[C@@H]4CC(=O)CC[C@]4(C)[C@H]3CC[C@]12C)c1ccc(Br)s1 (stereo partly drawn) [Compound I-38] | 2 (≈ 1.15 µg/mL) | 2 (≈ 1.15 µg/mL) | 1 (≈ 0.577 µg/mL) | – | – | –
CC(=O)O[C@@H]1CC2=CC(=O)C=C[C@]2(C)[C@H]2CC[C@]3(C)[C@@H]([C@H](C)CC(=O)N[C@@H](c4ccc(Br)s4)C(C)C)CC[C@H]3[C@H]12 [I-160 -1] | 0.5 (≈ 0.315 µg/mL) | 0.5 (≈ 0.315 µg/mL) | 0.5 (≈ 0.315 µg/mL) | – | – | –
C[C@H](CC(=O)NCc1cccnc1)[C@H]1CC[C@H]2[C@@H]3[C@H](O)C[C@@H]4C[C@H](O)CC[C@]4(C)[C@H]3CC[C@]12C [Compound I-5] | 16 (≈ 7.5 µg/mL) | 16 (≈ 7.5 µg/mL) | 32 (≈ 15 µg/mL) | – | – | –
CC[C@H](NC(=O)C[C@@H](C)[C@H]1CC[C@H]2[C@@H]3C(=O)C[C@@H]4CC(=O)CC[C@]4(C)[C@H]3CC[C@]12C)c1cccs1 [Compound I-36] | 8 (≈ 3.98 µg/mL) | 8 (≈ 3.98 µg/mL) | 4 (≈ 1.99 µg/mL) | – | – | –
CC(C)[C@H](NC(=O)C[C@@H](C)[C@H]1CC[C@H]2[C@@H]3C(=O)C[C@@H]4CC(=O)CC[C@]4(C)[C@H]3CC[C@]12C)c1ccc(Cl)s1 [Compound I-76] | > 256 | > 256 | > 256 | – | – | –
C[C@H](CC(=O)NC(c1ccccc1)c1ccccc1)[C@H]1CC[C@H]2[C@@H]3C(=O)C[C@@H]4CC(=O)CC[C@]4(C)[C@H]3CC[C@]12C [Compound I-61] | 128 (≈ 69.1 µg/mL) | 128 (≈ 69.1 µg/mL) | 128 (≈ 69.1 µg/mL) | – | – | –
C[C@H](CC(=O)N[C@H](C)c1cccs1)[C@H]1CC[C@H]2[C@@H]3C(=O)C[C@@H]4CC(=O)CC[C@]4(C)[C@H]3CC[C@]12C [Compound I-29] | 1 (≈ 0.484 µg/mL) | 1 (≈ 0.484 µg/mL) | 1 (≈ 0.484 µg/mL) | – | – | –
Cc1ccc(C(C)NC(=O)C[C@@H](C)[C@H]2CC[C@H]3[C@@H]4C(=O)C[C@@H]5CC(=O)CC[C@]5(C)[C@H]4CC[C@]23C)s1 (stereo partly drawn) [Compound I-30] | 2 (≈ 0.995 µg/mL) | 2 (≈ 0.995 µg/mL) | 1 (≈ 0.498 µg/mL) | – | – | –
CC(C)[C@@H](NC(=O)C[C@@H](C)[C@H]1CC[C@H]2[C@@H]3[C@H](O)[C@H](O)[C@@H]4C[C@H](O)CC[C@]4(C)[C@H]3CC[C@]12C)c1ccc(Cl)s1 [Compound I-120] | 16 (≈ 9.06 µg/mL) | 16 (≈ 9.06 µg/mL) | 16 (≈ 9.06 µg/mL) | – | – | –
CC[C@H](NC(=O)C[C@@H](C)[C@H]1CC[C@H]2[C@@H]3[C@H](O)C[C@@H]4CC(=O)CC[C@]4(C)[C@H]3CC[C@]12C)c1ccc(Cl)s1 [Compound I-87] | 128 (≈ 68.4 µg/mL) | 256 (≈ 137 µg/mL) | 128 (≈ 68.4 µg/mL) | – | – | –
CC[C@H](NC(=O)C[C@@H](C)[C@H]1CC[C@H]2[C@@H]3C[C@H](O)[C@@H]4CC(=O)CC[C@]4(C)[C@H]3CC[C@]12C)c1ccc(Cl)s1 [Compound I-129] | 2 (≈ 1.07 µg/mL) | 4 (≈ 2.14 µg/mL) | 2 (≈ 1.07 µg/mL) | – | – | –
CC(C)[C@@H](NC(=O)C[C@@H](C)[C@H]1CC[C@H]2[C@@H]3C(=O)C[C@@H]4CC(=O)CC[C@]4(C)[C@H]3CC[C@]12C)c1ccc(Cl)s1 [Compound I-77] | 0.25 (≈ 0.137 µg/mL) | 0.25 (≈ 0.137 µg/mL) | 0.25 (≈ 0.137 µg/mL) | – | – | –
CC[C@H](NC(=O)C[C@@H](C)[C@H]1CC[C@H]2[C@@H]3[C@H](OS(=O)(=O)O)C[C@@H]4CC(=O)CC[C@]4(C)[C@H]3CC[C@]12C)c1ccc(Br)s1 [Compound I-108] | > 256 | > 256 | > 256 | – | – | –
CC[C@@H](NC(=O)C[C@@H](C)[C@H]1CC[C@H]2[C@@H]3[C@H](O)C[C@@H]4CC(=O)CC[C@]4(C)[C@H]3CC[C@]12C)c1ccc(S(=O)(=O)O)s1 [Compound I-94] | 16 (≈ 9.28 µg/mL) | 8 (≈ 4.64 µg/mL) | 8 (≈ 4.64 µg/mL) | – | – | –
CC[C@H](NC(=O)C[C@@H](C)[C@H]1CC[C@H]2[C@@H]3C(=O)C[C@@H]4CC(=O)CC[C@]4(C)[C@H]3CC[C@]12C)c1ccccc1 [Compound I-59] | – | – | – | 64 (≈ 31.5 µg/mL) | 128 (≈ 62.9 µg/mL) | 64 (≈ 31.5 µg/mL)
C[C@H](CC(=O)NCc1cccs1)[C@H]1CC[C@H]2[C@@H]3[C@H](O)[C@H](O)[C@@H]4C[C@H](O)CC[C@]4(C)[C@H]3CC[C@]12C [Compound I-21] | 8 (≈ 3.92 µg/mL) | 8 (≈ 3.92 µg/mL) | 4 (≈ 1.96 µg/mL) | – | – | –
CC(NC(=O)C[C@@H](C)[C@H]1CC[C@H]2[C@@H]3C(=O)C[C@@H]4CC(=O)CC[C@]4(C)[C@H]3CC[C@]12C)c1ccc(Br)s1 (stereo partly drawn) [Compound I-33] | 1 (≈ 0.563 µg/mL) | 0.5 (≈ 0.281 µg/mL) | 0.5 (≈ 0.281 µg/mL) | – | – | –
CC(C)[C@H](NC(=O)C[C@@H](C)[C@H]1CC[C@H]2[C@@H]3[C@H](O)C[C@@H]4CC(=O)CC[C@]4(C)[C@H]3CC[C@]12C)c1cccs1 [Compound I-135] | > 256 | > 256 | > 256 | – | – | –
CCCCCCCC(=O)O[C@@H]1C[C@@H]2CC(=O)CC[C@]2(C)[C@H]2CC[C@]3(C)[C@@H]([C@H](C)CC(=O)N[C@@H](c4ccc(Br)s4)C(C)C)CC[C@H]3[C@H]12 [Compound I-186] | 256 (≈ 184 µg/mL) | 256 (≈ 184 µg/mL) | 256 (≈ 184 µg/mL) | – | – | –
CC[C@@H](NC(=O)C[C@@H](C)[C@H]1CC[C@H]2[C@@H]3[C@H](N)C[C@@H]4CC(=O)CC[C@]4(C)[C@H]3CC[C@]12C)c1ccc(Cl)s1 [Compound I-172] | 32 (≈ 17.1 µg/mL) | 32 (≈ 17.1 µg/mL) | 32 (≈ 17.1 µg/mL) | – | – | –
C[C@H](CC(=O)NC(c1cccs1)C1CCCC1)[C@H]1CC[C@H]2[C@@H]3C(=O)C[C@@H]4CC(=O)CC[C@]4(C)[C@H]3CC[C@]12C (stereo partly drawn) [Compound I-53] | 32 (≈ 17.2 µg/mL) | 32 (≈ 17.2 µg/mL) | 32 (≈ 17.2 µg/mL) | – | – | –
